Where a SMILES comes first, the peptide text is derived from it.
Experiments:
Androgen receptor [1] = molecular target: T1, Androgen receptor (Rattus norvegicus, UniProt P15207); assay type: functional
T1 sequence (P15207 whole entry): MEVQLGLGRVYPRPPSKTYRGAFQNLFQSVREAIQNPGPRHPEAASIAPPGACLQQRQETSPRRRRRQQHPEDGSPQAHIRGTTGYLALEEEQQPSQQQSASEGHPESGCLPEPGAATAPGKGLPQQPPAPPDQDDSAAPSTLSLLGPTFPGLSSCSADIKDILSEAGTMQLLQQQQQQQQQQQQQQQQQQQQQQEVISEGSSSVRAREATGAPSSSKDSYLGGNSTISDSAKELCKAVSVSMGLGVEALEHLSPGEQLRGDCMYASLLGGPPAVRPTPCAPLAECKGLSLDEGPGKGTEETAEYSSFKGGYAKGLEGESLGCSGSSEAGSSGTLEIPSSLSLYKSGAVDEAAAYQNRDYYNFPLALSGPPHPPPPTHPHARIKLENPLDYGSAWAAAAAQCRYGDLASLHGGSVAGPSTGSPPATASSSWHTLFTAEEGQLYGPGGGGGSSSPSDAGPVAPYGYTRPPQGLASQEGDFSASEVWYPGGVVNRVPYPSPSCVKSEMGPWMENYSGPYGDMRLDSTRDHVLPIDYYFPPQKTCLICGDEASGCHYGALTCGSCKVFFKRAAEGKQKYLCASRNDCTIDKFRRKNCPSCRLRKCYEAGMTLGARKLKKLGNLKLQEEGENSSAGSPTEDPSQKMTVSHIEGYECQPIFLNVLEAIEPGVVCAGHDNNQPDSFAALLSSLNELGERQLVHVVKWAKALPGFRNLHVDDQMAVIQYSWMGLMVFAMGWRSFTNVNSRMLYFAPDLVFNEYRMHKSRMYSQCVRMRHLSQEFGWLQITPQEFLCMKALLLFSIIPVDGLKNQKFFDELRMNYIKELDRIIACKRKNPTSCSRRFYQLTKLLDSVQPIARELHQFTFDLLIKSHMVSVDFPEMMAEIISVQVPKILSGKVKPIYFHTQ

B1 bradykinin receptor = molecular target: T2, B1 bradykinin receptor (Homo sapiens, UniProt P46663)
T2 sequence (P46663 whole entry): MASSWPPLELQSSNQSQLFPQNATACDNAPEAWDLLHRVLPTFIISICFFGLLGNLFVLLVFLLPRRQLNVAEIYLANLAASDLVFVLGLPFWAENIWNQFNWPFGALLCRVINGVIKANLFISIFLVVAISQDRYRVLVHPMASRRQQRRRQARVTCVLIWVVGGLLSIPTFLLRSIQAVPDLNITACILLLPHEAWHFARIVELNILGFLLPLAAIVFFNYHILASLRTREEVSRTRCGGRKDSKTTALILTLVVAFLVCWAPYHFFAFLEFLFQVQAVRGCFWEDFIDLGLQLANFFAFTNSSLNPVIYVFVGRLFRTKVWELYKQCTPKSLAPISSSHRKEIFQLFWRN

[2] = molecular target: T3, Corticotropin-releasing factor receptor 2 (Homo sapiens, UniProt Q13324)
T3 sequence (Q13324 whole entry): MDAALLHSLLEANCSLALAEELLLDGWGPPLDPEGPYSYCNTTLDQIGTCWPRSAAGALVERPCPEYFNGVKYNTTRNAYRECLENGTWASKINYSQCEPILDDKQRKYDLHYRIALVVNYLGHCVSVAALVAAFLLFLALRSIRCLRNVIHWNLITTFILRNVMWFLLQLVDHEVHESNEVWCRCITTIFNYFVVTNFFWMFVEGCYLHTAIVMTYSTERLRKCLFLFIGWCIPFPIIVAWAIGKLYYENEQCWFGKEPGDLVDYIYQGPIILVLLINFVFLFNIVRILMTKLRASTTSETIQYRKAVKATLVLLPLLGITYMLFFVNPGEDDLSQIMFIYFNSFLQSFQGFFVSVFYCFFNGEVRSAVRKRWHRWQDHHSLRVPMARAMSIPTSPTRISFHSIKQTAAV

[3] = molecular target: T4, Endothelin receptor type B (Homo sapiens, UniProt P24530)
T4 sequence (P24530 whole entry): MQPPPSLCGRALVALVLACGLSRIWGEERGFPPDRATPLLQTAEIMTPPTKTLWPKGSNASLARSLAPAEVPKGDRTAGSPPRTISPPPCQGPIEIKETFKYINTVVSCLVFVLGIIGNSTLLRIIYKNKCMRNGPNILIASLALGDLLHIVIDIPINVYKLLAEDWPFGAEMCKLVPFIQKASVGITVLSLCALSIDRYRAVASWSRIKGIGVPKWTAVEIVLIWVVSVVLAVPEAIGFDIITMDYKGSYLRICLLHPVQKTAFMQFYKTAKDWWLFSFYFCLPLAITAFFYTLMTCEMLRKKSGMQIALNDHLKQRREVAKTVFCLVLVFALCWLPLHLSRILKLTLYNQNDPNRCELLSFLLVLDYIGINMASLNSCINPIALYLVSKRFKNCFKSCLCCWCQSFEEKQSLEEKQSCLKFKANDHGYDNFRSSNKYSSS

[4] = molecular target: T5, Neuropeptide Y receptor type 2 (Homo sapiens, UniProt P49146)
T5 sequence (P49146 whole entry): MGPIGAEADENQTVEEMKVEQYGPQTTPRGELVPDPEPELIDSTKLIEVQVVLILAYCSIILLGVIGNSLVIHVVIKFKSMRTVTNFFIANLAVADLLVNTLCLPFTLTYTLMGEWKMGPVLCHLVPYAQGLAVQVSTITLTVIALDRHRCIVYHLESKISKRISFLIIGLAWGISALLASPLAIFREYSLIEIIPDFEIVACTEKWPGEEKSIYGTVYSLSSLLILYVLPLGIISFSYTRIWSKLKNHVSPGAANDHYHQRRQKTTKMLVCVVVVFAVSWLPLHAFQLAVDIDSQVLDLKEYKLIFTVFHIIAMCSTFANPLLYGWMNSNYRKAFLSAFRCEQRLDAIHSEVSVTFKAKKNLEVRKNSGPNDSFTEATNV

D(1A) dopamine receptor = D(1A) dopamine receptor (Homo sapiens, UniProt P21728)
Androgen receptor [5] = molecular target: T1, Androgen receptor
[6] = molecular target: Beta-3 adrenergic receptor (Homo sapiens, UniProt P13945)
Estrogen receptor beta = Estrogen receptor beta (Homo sapiens, UniProt Q92731)
Further: assay procedure not described here.

Sequence of Beta-3 adrenergic receptor (P13945 whole entry): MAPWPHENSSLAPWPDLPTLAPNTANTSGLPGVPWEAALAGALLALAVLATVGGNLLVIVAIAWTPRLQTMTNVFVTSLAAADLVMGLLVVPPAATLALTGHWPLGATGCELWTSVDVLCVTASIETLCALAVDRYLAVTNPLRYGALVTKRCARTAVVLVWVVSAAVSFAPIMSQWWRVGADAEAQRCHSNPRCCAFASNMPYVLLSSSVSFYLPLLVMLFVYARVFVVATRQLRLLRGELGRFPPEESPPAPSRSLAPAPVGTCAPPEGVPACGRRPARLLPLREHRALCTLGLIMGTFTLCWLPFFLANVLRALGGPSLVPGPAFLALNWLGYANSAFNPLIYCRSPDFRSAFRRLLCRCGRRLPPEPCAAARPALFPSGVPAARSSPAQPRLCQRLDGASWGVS
Sequence of Estrogen receptor beta (Q92731 whole entry): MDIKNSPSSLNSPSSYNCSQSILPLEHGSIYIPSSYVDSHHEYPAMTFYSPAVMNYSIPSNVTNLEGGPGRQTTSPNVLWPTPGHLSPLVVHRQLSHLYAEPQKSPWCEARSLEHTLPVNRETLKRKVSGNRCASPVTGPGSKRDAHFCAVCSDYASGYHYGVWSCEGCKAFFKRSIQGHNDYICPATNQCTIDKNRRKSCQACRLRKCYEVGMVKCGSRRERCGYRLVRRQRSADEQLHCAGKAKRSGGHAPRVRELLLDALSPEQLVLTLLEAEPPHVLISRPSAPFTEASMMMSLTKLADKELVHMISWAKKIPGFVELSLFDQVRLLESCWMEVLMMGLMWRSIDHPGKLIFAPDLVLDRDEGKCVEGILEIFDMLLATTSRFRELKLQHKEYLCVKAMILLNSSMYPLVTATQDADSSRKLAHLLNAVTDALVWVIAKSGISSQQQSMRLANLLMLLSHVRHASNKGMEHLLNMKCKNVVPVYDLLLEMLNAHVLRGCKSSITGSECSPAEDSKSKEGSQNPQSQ
Sequence of D(1A) dopamine receptor (P21728 whole entry): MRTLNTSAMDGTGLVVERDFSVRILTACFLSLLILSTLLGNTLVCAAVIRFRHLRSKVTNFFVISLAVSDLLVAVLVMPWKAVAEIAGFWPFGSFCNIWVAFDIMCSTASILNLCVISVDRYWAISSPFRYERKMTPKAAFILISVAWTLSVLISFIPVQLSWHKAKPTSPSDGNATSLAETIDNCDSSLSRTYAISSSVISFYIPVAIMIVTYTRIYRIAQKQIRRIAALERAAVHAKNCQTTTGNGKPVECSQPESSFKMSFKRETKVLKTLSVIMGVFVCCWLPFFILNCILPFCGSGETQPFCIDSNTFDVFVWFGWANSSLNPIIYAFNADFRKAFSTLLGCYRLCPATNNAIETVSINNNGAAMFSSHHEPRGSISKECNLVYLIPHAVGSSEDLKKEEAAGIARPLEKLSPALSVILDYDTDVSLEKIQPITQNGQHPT

Compound	AC50 (Androgen receptor [1]) [µM]	AC50 (B1 bradykinin receptor) [µM]	AC50 [2] [µM]	AC50 [3] [µM]	AC50 [4] [µM]	AC50 (D(1A) dopamine receptor) [µM]	AC50 (Androgen receptor [5]) [µM]	AC50 [6] [µM]	AC50 (Estrogen receptor beta) [µM]
O=C(O)c1nn(Cc2ccc(Cl)cc2Cl)c2ccccc12 [LONIDAMINE]	> 30	–	–	–	–	–	–	–	–
C[C@H](N)C(=O)N[C@@H](CCC(N)=O)C(=O)O [ALANYL GLUTAMINE] (H-Ala-Gln-OH)	> 30	–	–	–	–	–	–	–	–
NS(=O)(=O)c1ccc(N2CCCCS2(=O)=O)cc1	> 30	–	–	–	–	–	–	–	–
O=C(O[C@H]1C[N+]2(CCCOc3ccccc3)CCC1CC2)C(O)(c1cccs1)c1cccs1 [ACLIDINIUM BROMIDE]	–	> 30	> 30	> 30	> 30	> 10	–	–	–
CCCCCCCC(=O)CC[C@@H]1[C@@H](C/C=C\CCCC(=O)O)[C@@H](O)C[C@H]1O [UNOPROSTONE]	> 30	–	–	–	–	–	–	–	–
Nc1cc(N2CCCCC2)nc(N)[n+]1[O-] [MINOXIDIL]	–	–	–	–	–	–	> 30	–	–
CCN(CC)C(C)C(=O)c1ccccc1 (stereo not given) [DIETHYLPROPION]	–	> 30	> 30	> 30	> 30	> 10	> 30	> 30	–
C=C(c1ccccc1OCc1cccc(Cl)c1)n1ccnc1 [CROCONAZOLE]	–	–	–	–	–	–	> 30	–	–
Cc1ccc(S(=O)(=O)NC(=O)N[C@H]2[C@H]3CC[C@@](C)([C@H]2O)C3(C)C)cc1 [GLIBORNURIDE]	> 30	–	–	–	–	–	–	–	–
CC1NCCOC1c1ccccc1 (stereo not given) [PHENMETRAZINE]	–	> 30	> 30	> 30	> 30	> 10	–	> 30	> 30
TEPRENONE	–	–	–	–	–	–	> 30	–	–
CC(NC(C)(C)C)C(=O)c1cccc(Cl)c1 (stereo not given) [BUPROPION]	–	> 30	> 30	> 30	> 30	> 10	–	> 30	> 30
O=C(O)c1ccc2nc(-c3cc(Cl)cc(Cl)c3)oc2c1	> 30	–	–	–	–	–	–	–	–
CC1=C(CC(=O)O)c2cc(F)ccc2/C1=C\c1ccc([S+](C)[O-])cc1 (stereo not given)	–	> 30	> 30	> 30	> 30	> 10	–	> 30	> 30
CCOC(=O)O[C@]1(C(=O)COC(=O)CC)CC[C@H]2[C@@H]3CCC4=CC(=O)C=C[C@]4(C)[C@H]3[C@@H](O)C[C@@]21C [PREDNICARBATE]	–	–	–	–	–	–	0.71	–	–
Cc1nnc2n1-c1ccc(Cl)cc1C(c1ccccc1)=NC2 [ALPRAZOLAM]	–	> 30	> 30	> 30	> 30	> 10	–	> 30	> 30
Oc1cc(O)c2c(c1)O[C@H](c1ccc(O)c(O)c1)[C@@H](O)C2 [CIANIDANOL]	–	> 30	> 30	> 30	> 30	> 10	–	> 30	> 30

Compound	AC50 (Androgen receptor [1]) [µM]	AC50 (B1 bradykinin receptor) [µM]	AC50 [2] [µM]	AC50 [3] [µM]	AC50 [4] [µM]	AC50 (D(1A) dopamine receptor) [µM]	AC50 (Androgen receptor [5]) [µM]	AC50 [6] [µM]	AC50 (Estrogen receptor beta) [µM]
CC(=O)OCC(=O)[C@@]1(O)CC[C@H]2[C@@H]3CCC4=CC(=O)CC[C@]4(C)[C@@]3(F)[C@@H](O)C[C@@]21C [FLUDROCORTISONE ACETATE]	> 30	–	–	–	–	–	–	–	–
CN1C2CCCC1CC(NC(=O)c1nn(C)c3ccccc13)C2 (stereo not given) [GRANISETRON]	–	> 30	> 30	> 30	> 30	> 10	–	> 30	> 30
OCC(O)COc1ccc(Cl)cc1 (stereo not given)	–	–	–	–	–	–	> 10	–	–
CCOC(=O)C1=C(C)NC(C)=C(C(=O)OC)C1c1cccc(Cl)c1Cl (stereo not given) [FELODIPINE]	–	> 30	> 30	> 30	> 30	> 10	–	10.4	> 30
CC(C)(N)Cc1ccccc1 [PHENTERMINE]	–	> 30	> 30	> 30	> 30	> 10	> 30	> 30	> 30
OCCN(CCO)c1nc(N2CCCCC2)c2nc(N(CCO)CCO)nc(N3CCCCC3)c2n1 [DIPYRIDAMOLE]	–	–	–	–	–	–	> 30	> 30	–
CC(C)CN(C[C@@H](O)[C@H](Cc1ccccc1)NC(=O)O[C@H]1CCOC1)S(=O)(=O)c1ccc(N)cc1	–	–	–	–	–	–	> 10	–	–
Cc1cnc(Nc2ccc(OCCN3CCCC3)cc2)nc1Nc1cccc(S(=O)(=O)NC(C)(C)C)c1 [FEDRATINIB]	–	–	–	–	–	–	> 30	–	–
Cc1ccc(-c2ncc(Cl)cc2-c2ccc(S(C)(=O)=O)cc2)cn1 [ETORICOXIB]	–	> 30	> 30	> 30	> 30	> 10	> 30	> 30	> 30
CCC(=O)[C@@]1(C)[C@H](C)C[C@H]2[C@@H]3CCC4=CC(=O)C=C[C@]4(C)[C@H]3[C@@H](O)C[C@@]21C [RIMEXOLONE]	–	–	–	–	–	–	> 30	–	–
CCN(CC)CC(=O)Nc1c(C)cccc1C [LIDOCAINE]	–	> 30	> 30	> 30	> 30	–	–	–	> 30
CC(C(=O)O)c1ccc(C(=O)c2ccccc2)s1 (stereo not given) [TIAPROFENIC ACID]	–	–	–	–	–	–	> 10	–	–
COc1ccc2c3c1O[C@H]1C(=O)CC[C@H]4[C@@H](C2)N(C)CC[C@]314 [HYDROCODONE]	–	> 30	> 30	> 30	> 30	> 10	–	> 30	> 30
C[C@@H](Cc1ccccc1)N(C)Cc1ccccc1 [BENZPHETAMINE]	–	–	–	–	–	–	> 10	–	–
O=C1CN=C(c2ccccc2Cl)c2cc([N+](=O)[O-])ccc2N1 [CLONAZEPAM]	–	> 30	> 30	> 30	> 30	> 10	> 30	> 30	> 30
CN1C(=O)CN=C(c2ccccc2F)c2cc([N+](=O)[O-])ccc21 [FLUNITRAZEPAM]	–	> 30	> 30	> 30	> 30	> 10	> 30	> 30	> 30
OCC(CO)N[C@H]1C[C@](O)(CO)[C@@H](O)[C@H](O)[C@H]1O [VOGLIBOSE]	–	–	–	–	–	–	> 30	–	–
